Key:
Assay in all cases: relative viability (nuclei count vs DMSO), 5 days (fraction); higher = more cells survive
VE-821 + Tozasertib = compound: CS(=O)(=O)c1ccc(-c2cnc(N)c(C(=O)Nc3ccccc3)n2)cc1 [VE-821] + Cc1cc(Nc2cc(N3CCN(C)CC3)nc(Sc3ccc(NC(=O)C4CC4)cc3)n2)n[nH]1 [Tozasertib] (partner 0.1 µM)
Procedure, shortened: (§1)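 Cells from lung cancer lines were seeded into 1536-well plates and, one day later, dosed by pin tool. Treatments were either a single drug or a fixed dose of an anchor drug with five library-drug doses (not always all listed) in √10 steps. After 5 days, nuclei were stained in a one-step fixation (final 0.05% Triton X-100, 1% formaldehyde, 1 ug/ml Hoechst) and counted on 4× images, and relative viability is the treated-to-vehicle nuclei ratio, as the median of duplicate plates.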

VE-821 + Vorinostat = compound: CS(=O)(=O)c1ccc(-c2cnc(N)c(C(=O)Nc3ccccc3)n2)cc1 [VE-821] + O=C(CCCCCCC(=O)Nc1ccccc1)NO [Vorinostat] (partner 1 µM)
Procedure, shortened: as §1

Vismodegib + Linsitinib = compound: CS(=O)(=O)c1ccc(C(=O)Nc2ccc(Cl)c(-c3ccccn3)c2)c(Cl)c1 [Vismodegib] + C[C@]1(O)C[C@@H](c2nc(-c3ccc4ccc(-c5ccccc5)nc4c3)c3c(N)nccn32)C1 [Linsitinib] (partner 1 µM)
Procedure, shortened: as §1

Ruxolitinib + Phenformin = compound: N#CC[C@H](C1CCCC1)n1cc(-c2ncnc3[nH]ccc23)cn1 [Ruxolitinib] + N=C(N)NC(=N)NCCc1ccccc1 [Phenformin] (partner 250 µM)
Procedure, shortened: as §1

Row | Cell Line | relative viability (VE-821 + Tozasertib; first compound 0.08 µM) | relative viability (VE-821 + Tozasertib; first compound 0.253 µM) | relative viability (VE-821 + Tozasertib; first compound 0.8 µM) | relative viability (VE-821 + Tozasertib; first compound 2.53 µM) | relative viability (VE-821 + Tozasertib; first compound 8 µM) | relative viability (VE-821 + Vorinostat; first compound 0.08 µM) | relative viability (VE-821 + Vorinostat; first compound 0.253 µM) | relative viability (VE-821 + Vorinostat; first compound 0.8 µM) | relative viability (VE-821 + Vorinostat; first compound 2.53 µM) | relative viability (VE-821 + Vorinostat; first compound 8 µM) | relative viability (Vismodegib + Linsitinib; first compound 0.08 µM) | relative viability (Vismodegib + Linsitinib; first compound 0.253 µM) | relative viability (Vismodegib + Linsitinib; first compound 0.8 µM) | relative viability (Vismodegib + Linsitinib; first compound 2.53 µM) | relative viability (Vismodegib + Linsitinib; first compound 8 µM) | relative viability (Ruxolitinib + Phenformin; first compound 0.08 µM) | relative viability (Ruxolitinib + Phenformin; first compound 0.253 µM) | relative viability (Ruxolitinib + Phenformin; first compound 0.8 µM) | relative viability (Ruxolitinib + Phenformin; first compound 2.53 µM) | relative viability (Ruxolitinib + Phenformin; first compound 8 µM)
1 | LXF-289 | 0.246 | 0.196 | 0.205 | 0.193 | 0.119 | 0.78 | 0.843 | 0.827 | 0.812 | 0.786 | 0.959 | 0.929 | 0.98 | 0.976 | 0.919 | 0.509 | 0.492 | 0.538 | 0.491 | 0.497
2 | NCI-H23 | 0.323 | 0.559 | 0.263 | 0.192 | 0.179 | 0.759 | 0.476 | 0.309 | 0.285 | 0.139 | 0.591 | 0.511 | 0.643 | 0.488 | 0.677 | 0.892 | 0.807 | 0.804 | 0.67 | 0.727
3 | NCI-H322M | 0.542 | 0.457 | 0.451 | 0.434 | 0.297 | 0.903 | 0.831 | 0.899 | 0.818 | 0.499 | 0.771 | 1.01 | 0.975 | 0.958 | 0.924 | 0.777 | 0.768 | 0.936 | 0.962 | 1.02
4 | NCI-H358 | 0.12 | 0.105 | 0.0999 | 0.0895 | 0.0895 | 0.737 | 0.694 | 0.712 | 0.608 | 0.329 | 0.777 | 0.667 | 0.712 | 0.817 | 0.765 | 0.291 | 0.271 | 0.319 | 0.189 | 0.26
5 | NCI-H441 | 0.78 | 0.399 | 0.666 | 0.564 | 0.511 | 0.833 | 0.765 | 0.951 | 0.921 | 0.435 | 0.419 | 0.562 | 0.48 | 0.508 | 0.653 | 0.769 | 0.743 | 1.13 | 0.688 | 0.651
6 | NCI-H460 | 0.492 | 0.343 | 0.0499 | 0.0583 | 0.0489 | 1.02 | 0.619 | 0.528 | 0.111 | 0.0517 | 0.732 | 0.74 | 0.773 | 0.733 | 1.08 | 0.484 | 0.54 | 0.549 | 0.443 | 0.445
7 | NCI-H520 | 0.493 | 0.457 | – | 0.435 | 0.858 | 0.614 | 0.779 | 0.719 | 0.603 | 0.353 | 0.916 | 0.928 | 0.966 | 0.974 | 1.16 | 0.565 | 0.323 | 0.717 | 0.483 | 0.58
8 | NCI-H596 | 0.916 | 0.82 | 0.798 | 0.954 | 0.774 | 0.703 | 0.579 | 0.604 | 0.557 | 0.51 | 0.976 | 1.07 | 1.1 | 1.01 | 1.15 | 0.975 | 0.793 | 0.801 | 0.706 | 0.836
9 | NCI-H647 | 0.372 | 0.26 | 0.261 | 0.238 | 0.164 | 0.556 | 0.689 | 0.646 | 0.469 | 0.287 | 1.16 | 1.21 | 1.19 | 0.911 | 1.34 | 0.481 | 0.517 | 0.502 | 0.481 | 0.531
10 | NCI-H650 | 0.744 | 0.744 | 0.643 | 0.765 | 0.707 | 0.443 | 0.403 | 0.395 | 0.471 | 0.409 | 0.868 | 0.799 | 0.679 | 0.994 | 0.949 | – | 0.449 | 0.519 | 0.351 | 0.342
11 | NCI-H661 | 0.351 | 0.354 | 0.336 | 0.343 | 0.336 | 0.839 | 0.836 | 0.815 | 0.783 | 0.627 | 0.5 | 0.497 | 0.575 | 0.522 | 0.579 | 0.287 | 0.256 | 0.303 | 0.29 | 0.263
12 | NCI-H727 | 0.601 | 0.633 | 0.505 | 0.67 | 0.488 | 1.12 | 1.28 | 1.16 | 1.02 | 1.16 | 0.336 | 0.319 | 0.286 | 0.376 | 0.239 | 0.505 | 0.55 | 0.576 | 0.599 | 0.848
13 | NCI-H838 | 0.284 | 0.25 | 0.2 | 0.212 | 0.215 | 0.755 | 0.688 | 0.697 | 0.69 | 0.542 | 0.869 | 0.967 | 0.992 | 0.99 | 1.02 | 0.602 | 0.54 | 0.465 | 0.266 | 0.263
14 | NCI-H1355 | 0.542 | 0.52 | 0.404 | 0.369 | 0.194 | 0.819 | 0.61 | 0.663 | 0.72 | 0.57 | 0.844 | 0.724 | 0.798 | 0.808 | 0.856 | 0.418 | 0.418 | 0.46 | 0.394 | 0.416
15 | NCI-H1395 | 0.765 | 0.716 | 0.671 | 0.703 | 0.762 | 0.69 | 0.647 | 0.705 | 0.638 | 0.43 | 1.07 | 1.36 | 0.961 | 0.961 | 1.18 | 0.435 | 0.418 | 0.489 | 0.455 | 0.408
16 | NCI-H1437 | 0.437 | 0.401 | 0.368 | 0.421 | 0.408 | 0.847 | 0.797 | 0.901 | 0.777 | 0.611 | 0.855 | 0.977 | 1.03 | 0.95 | 0.892 | 0.341 | 0.287 | 0.29 | 0.275 | 0.271
17 | NCI-H1651 | 0.779 | 0.616 | 0.345 | 0.517 | 0.422 | 0.562 | 0.606 | 0.583 | 0.556 | 0.531 | 0.922 | 0.924 | 0.925 | 0.931 | 0.961 | 0.313 | 0.275 | 0.351 | 0.3 | 0.354
18 | NCI-H1666 | 0.625 | 0.684 | 0.646 | 0.644 | 0.603 | 1.14 | 1.06 | 1.18 | 1.01 | 0.942 | 0.877 | 0.871 | 0.69 | 0.773 | 0.967 | 0.606 | 0.538 | 0.519 | 0.564 | 0.512
19 | NCI-H1734 | 0.292 | 0.245 | 0.235 | 0.24 | 0.226 | 1.03 | 0.762 | 0.733 | 0.707 | 0.44 | 0.878 | 0.831 | 0.878 | 0.825 | 1.01 | 0.382 | 0.342 | 0.472 | 0.36 | 0.432
20 | NCI-H1755 | 0.667 | 0.543 | 0.539 | 0.532 | 0.428 | 0.778 | 0.638 | 0.734 | 0.792 | 0.615 | 0.926 | 0.969 | 1.02 | 1 | 0.999 | 0.613 | 0.586 | 0.575 | 0.527 | 0.526
21 | NCI-H1793 | 0.323 | 0.257 | 0.182 | 0.234 | 0.159 | 0.996 | 0.616 | – | 0.837 | 0.615 | – | 0.701 | 0.903 | 1.04 | 0.824 | 0.361 | 0.345 | 0.368 | 0.338 | 0.304
22 | NCI-H1915 | 0.472 | 0.45 | 0.341 | 0.35 | 0.303 | 0.623 | 0.509 | 0.451 | 0.536 | 0.457 | 1.11 | 1.15 | 1.06 | 1.1 | 1.1 | 0.375 | 0.41 | 0.384 | 0.358 | 0.343
23 | NCI-H1944 | 0.285 | 0.253 | 0.219 | 0.231 | 0.193 | 0.581 | 0.498 | 0.498 | 0.492 | 0.243 | 1.15 | 1.33 | 1.16 | 1.19 | 1.2 | 0.201 | 0.202 | 0.215 | 0.164 | 0.151
24 | NCI-H1975 | 0.862 | 0.625 | – | 0.17 | 0.139 | 0.749 | 0.697 | 0.706 | 0.647 | 0.516 | 0.87 | 0.919 | 0.975 | 0.908 | 0.977 | 0.43 | 0.394 | 0.423 | 0.384 | 0.269
25 | NCI-H1993 | 0.685 | 0.556 | 0.567 | 0.513 | 0.549 | 0.759 | 0.657 | 0.966 | 0.762 | 0.548 | 0.737 | 0.816 | 0.669 | 0.677 | 0.775 | 0.497 | 0.526 | 0.473 | 0.572 | 0.51
26 | NCI-H2009 | 0.871 | 0.74 | 0.633 | 0.737 | 0.734 | 0.771 | 0.668 | 0.699 | 0.76 | 0.683 | 1.14 | 1.18 | 1.19 | 1.16 | 1.26 | 0.414 | 0.443 | 0.535 | 0.423 | 0.297
27 | NCI-H2023 | 0.401 | 0.297 | 0.129 | 0.107 | 0.0977 | 0.783 | 0.467 | 0.441 | 0.243 | 0.121 | 0.596 | 0.662 | 0.675 | 0.579 | 0.618 | 0.383 | 0.373 | 0.428 | 0.358 | 0.328

Source: the supplement of paper PMC10307832
